{"source": "patent US8987272B2", "about": "“Compounds and method for treatment of HIV” (priority 2010, dated 2015)", "key": {"HIV-1 integrase [1]": {"target": "T1, HIV-1 integrase (Human immunodeficiency virus type 1 group M subtype B (isolate HXB2) (HIV-1), UniProt P04585)", "assay": "biochemical", "type": "biochemical", "procedure": "The capacity of the compound to inhibit HIV integrase in a cell-free system was assessed. An HIV Integrase Assay System (XpressBio Life Science Products; Thurmont, Md., www.expressbio.com) was used. In brief, double-stranded HIV-1 donor substrate (the U5 long terminal repeat) was immobilized in 96-well plates. Recombinant HIV-1 integrase protein was added, along with an oligonucleotide target substrate. The integrase cleaves the donor substrate and integrates it into the target substrate, which is now in solution phase—the integrated product (the amount is indicative of integrase activity) was detected using an antibody specific for the recombinant target/donor sequence. Inhibitors added along with the donor substrate reduced the amount of product. […] The capacity of a compound known to inhibit HIV integrase activity (NaN3) was assessed as a positive control. All assessed inhibitions were compared to controls treated with vehicle only (compounds dissolved in 100% DMSO, then diluted in buffer to a maximum DMSO concentration of 0.1% DMSO).\nHowever, it should be kept in mind that indirect HIV integrase inhibition (which might possibly occur in living cells) will not be detected.\nCOTI-HIV1Doxo was assayed for HIV-1 integrase activity, as described above. All measurements were made in quadruplicate (n=4) to allow statistical analysis of significance."}, "HIV-1 integrase [2]": {"target": "T1, HIV-1 integrase", "assay": "biochemical", "type": "biochemical", "procedure": "The effect of each compound on HIV integrase activity was assayed using the “HIV-1 Integrase Assay Kit” version 2.0, catalogue number EZ-1700 obtained from XpressBio Life Science Products. Immediately prior to the start of the assay, both compounds were dissolved in dimethyl sulfoxide (DMSO) and used immediately in the HIV integration assay. The assay was performed according to the instructions listed by the manufacturer (XpressBio Life Science Products, Maryland, USA). In brief, the required streptavidin-coated strip wells were coated with DS oligo and placed overnight at 4° C. The plates were then incubated with integrase and followed by the addition of test articles at the desired concentration. The plates were developed using the supplied HRP antibody and TMB peroxidase substrate as per the manufacturer's instructions. The reactions were stopped with TMB stop solution and immediately read (<10 min) using a VICTOR XXX. The absorbance of each well was read at 450 nm for 0.5 sec. All measurements were performed in triplicate.\nThe background absorbance was subtracted from the raw data of each sample to yield “background corrected” absorbance values. […] The CV=% SD for the 100% integrase alone control.\nTo determine the IC50 of each test compound, non-linear regression analysis was used.\nBecause the top and the bottom plateaus can be defined by solid control data (eg. sodium azide), the data was fitted to a normalized model in order to calculate the IC50. […] Since 6 compound concentrations were tested in triplicate, the data was analyzed using the standard slope model, in contrast with the variable slope model.", "remark": "listed apart in the source"}, "[3]": {"conditions": "all concentrations tested (lowest 1 nM)"}}, "note": "Values joined by “and” are separate entries in the source; they are usually repeats but may differ in a detail not shown here. Equal values may be shown once. “Also recorded” adds a separate entry of the source. Read-outs that look alike come from different tables or passages of the source."}
{"compound": "[N-]=[N+]=[N-].[Na+]", "note": "[sodium azide, reference compound]", "values": [{"measurement": "effect of positive control on HIV-1 integrase activity", "setting": "HIV-1 integrase [1]; 1.0% or 3.3%", "value": "effectively decreased HIV-1 integrase activity"}, {"measurement": "effect of positive control on HIV-1 integrase activity", "setting": "HIV-1 integrase [2]; positive control", "value": "effectively decrease HIV-1 integrase activity"}, {"measurement": "calculated IC50 of sodium azide controls", "setting": "HIV-1 integrase [2]; two controls run in parallel", "value": "0.12% and 0.14%"}, {"measurement": "percent control activity", "setting": "HIV-1 integrase [2]; with 10% sodium azide", "value": 0, "unit": "%"}]}
{"compound": "Cn1nc(-c2nnc(Cc3ccc(F)cc3)o2)/c(=N\\O)c2ncccc21", "note": "[COTI-HIV1Oxime]", "values": [{"measurement": "IC50", "setting": "HIV-1 integrase [2]", "value": 23.9, "unit": "µM"}, {"measurement": "percent of the total control activity", "setting": "HIV-1 integrase [2]; at 100 μM", "value": 34.82, "unit": "%"}, {"measurement": "reduction in HIV-1 integrase activity", "setting": "HIV-1 integrase [2]; at 100 μM", "value": "At least 50%"}, {"measurement": "inhibition of HIV-1 integrase", "setting": "HIV-1 integrase [2]; at 100 μM, listed as COTI-HIV28233", "value": "significantly inhibited HIV-1 integrase; also recorded: significantly reduce activity"}, {"measurement": "inhibition of HIV-1 integrase activity", "setting": "HIV-1 integrase [2]; at low concentrations", "value": "modestly inhibit HIV-1 integrase activity"}]}
{"compound": "Cn1cnc(-c2nnc(Cc3ccc(F)cc3)o2)c(O)c1=O", "note": "[COTI-HIV1Doxo, 6-[5-(4-Fluoro-benzyl)-[1,3,4]oxadiazol-2-yl]-5-hydroxy-3-methyl-3H pyrimidin-4-one]", "values": [{"measurement": "IC50", "setting": "HIV-1 integrase [1]", "value": "~10", "unit": "µM"}, {"measurement": "effect on HIV-1 integrase activity", "setting": "HIV-1 integrase [1]; 1 nM, listed as COTI-HIV-1 ketone derivative", "value": "enhanced HIV-1 integrase activity; also recorded: slightly but significantly enhanced HIV-1 integrase activity"}, {"measurement": "effect on HIV-1 integrase activity", "setting": "HIV-1 integrase [1]; 100 nM", "value": "inhibited HIV-1 integrase; also recorded: significantly reduce HIV-1 integrase activity"}, {"measurement": "effect on HIV-1 integrase activity", "setting": "HIV-1 integrase [1]; all higher tested concentrations (up to 100 μM)", "value": "significantly decreased HIV-1 integrase activity"}, {"measurement": "complete inhibition of integrase activity", "setting": "HIV-1 integrase [1]; up to 100 μM", "value": "not observed"}]}
{"compound": "Cn1cnc(-c2nnc(Cc3ccc(F)cc3)o2)c(O)/c1=N\\O", "note": "[COTI-HIV1DOxime, 6-[5-(4-fluoro-benzyl)-[1,3,4]oxadiazol-2-yl]-5-hydroxy-3-methyl-3H-pyrimidin-4-one oxime]", "values": [{"measurement": "IC50", "setting": "HIV-1 integrase [2]", "value": 58.7, "unit": "µM"}, {"measurement": "inhibition of HIV-1 integrase", "setting": "HIV-1 integrase [2]; [3]", "value": "significantly inhibited HIV-1 integrase; also recorded: significantly inhibit HIV-1 integrase activity"}]}
{"compound": "Cn1nc(C(=O)NCc2ccc(F)cc2)/c(=N\\O)c2ncccc21", "note": "[COTI-HIV28236]", "values": [{"measurement": "IC50", "setting": "HIV-1 integrase [2]", "value": 14, "unit": "µM"}, {"measurement": "inhibition of HIV-1 integrase", "setting": "HIV-1 integrase [2]; [3]", "value": "significantly inhibited HIV-1 integrase; also recorded: significantly inhibit HIV-1 integrase activity"}, {"measurement": "reduction in HIV-1 integrase activity", "setting": "HIV-1 integrase [2]; at 100 μM", "value": "At least 50%"}]}
